# Measurements from the supplement of paper PMC10307832.
# Columns and labels:
# Assay in all cases: relative viability (nuclei count vs DMSO), 5 days (fraction); higher = more cells survive
# 201T = tested on: 201T
# In short: (§1)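 Lung cancer cell lines were pin-tool dosed in 1536-well plates on the day after seeding, with either a lone drug or a fixed anchor-drug dose plus five library-drug doses (not always all listed) in √10 steps. Nuclei were counted on 4× images after 5 days. Relative viability is the ratio of treated-well to vehicle-well nuclei counts, with each value a median of duplicate plates.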
# ABC-1 = tested on: ABC-1
# In short: as §1
# CAL-12T = tested on: CAL-12T
# In short: as §1
# EMC-BAC-2 = tested on: EMC-BAC-2
# In short: as §1
# H3255 = tested on: H3255
# In short: as §1
# HOP-62 = tested on: HOP-62
# In short: as §1
# LK-2 = tested on: LK-2
# In short: as §1
# LXF-289 = tested on: LXF-289
# In short: as §1
# NCI-H1563 = tested on: NCI-H1563
# In short: as §1
# NCI-H1651 = tested on: NCI-H1651
# In short: as §1
# NCI-H1734 = tested on: NCI-H1734
# In short: as §1
smiles,measurement,setting,value
COCC1(CO)C(=O)C2CCN1CC2 (stereo not drawn) [PRIMA-1MET] + Cc1nc(Nc2ncc(C(=O)Nc3c(C)cccc3Cl)s2)cc(N2CCN(CCO)CC2)n1 [Dasatinib] (partner 0.075 µM),relative viability,201T; first compound 0.2 µM,0.635
same,relative viability,201T; first compound 0.6325 µM,0.369
same,relative viability,201T; first compound 2 µM,0.59
same,relative viability,201T; first compound 6.325 µM,0.566
same,relative viability,201T; first compound 20 µM,0.582
same,relative viability,ABC-1; first compound 0.2 µM,0.705
same,relative viability,ABC-1; first compound 0.6325 µM,0.539
same,relative viability,ABC-1; first compound 2 µM,0.58
same,relative viability,ABC-1; first compound 6.325 µM,0.451
same,relative viability,ABC-1; first compound 20 µM,0.279
same,relative viability,CAL-12T; first compound 0.2 µM,0.34
same,relative viability,CAL-12T; first compound 0.6325 µM,0.341
same,relative viability,CAL-12T; first compound 2 µM,0.456
same,relative viability,CAL-12T; first compound 6.325 µM,0.364
same,relative viability,CAL-12T; first compound 20 µM,0.0829
same,relative viability,EMC-BAC-2; first compound 0.2 µM,0.394
same,relative viability,EMC-BAC-2; first compound 0.6325 µM,0.298
same,relative viability,EMC-BAC-2; first compound 6.325 µM,0.378
same,relative viability,EMC-BAC-2; first compound 20 µM,0.247
same,relative viability,H3255; first compound 0.2 µM,0.285
same,relative viability,H3255; first compound 0.6325 µM,0.439
same,relative viability,H3255; first compound 2 µM,0.487
same,relative viability,H3255; first compound 6.325 µM,0.373
same,relative viability,H3255; first compound 20 µM,0.28
same,relative viability,HOP-62; first compound 0.2 µM,0.637
same,relative viability,HOP-62; first compound 0.6325 µM,0.7
same,relative viability,HOP-62; first compound 2 µM,0.628
same,relative viability,HOP-62; first compound 6.325 µM,0.658
same,relative viability,HOP-62; first compound 20 µM,0.582
same,relative viability,LK-2; first compound 0.2 µM,0.275
same,relative viability,LK-2; first compound 0.6325 µM,0.223
same,relative viability,LK-2; first compound 2 µM,0.329
same,relative viability,LK-2; first compound 6.325 µM,0.164
same,relative viability,LK-2; first compound 20 µM,0.116
same,relative viability,LXF-289; first compound 0.2 µM,0.277
same,relative viability,LXF-289; first compound 0.6325 µM,0.179
same,relative viability,LXF-289; first compound 2 µM,0.199
same,relative viability,LXF-289; first compound 6.325 µM,0.232
same,relative viability,LXF-289; first compound 20 µM,0.173
same,relative viability,NCI-H1563; first compound 0.2 µM,0.502
same,relative viability,NCI-H1563; first compound 0.6325 µM,0.426
same,relative viability,NCI-H1563; first compound 6.325 µM,0.548
same,relative viability,NCI-H1563; first compound 20 µM,0.422
same,relative viability,NCI-H1651; first compound 0.2 µM,0.455
same,relative viability,NCI-H1651; first compound 0.6325 µM,0.468
same,relative viability,NCI-H1651; first compound 2 µM,0.423
same,relative viability,NCI-H1651; first compound 6.325 µM,0.415
same,relative viability,NCI-H1651; first compound 20 µM,0.432
same,relative viability,NCI-H1734; first compound 0.2 µM,0.498
same,relative viability,NCI-H1734; first compound 0.6325 µM,0.303
same,relative viability,NCI-H1734; first compound 2 µM,0.426
same,relative viability,NCI-H1734; first compound 6.325 µM,0.384
same,relative viability,NCI-H1734; first compound 20 µM,0.0495
